The source of these data is patent US8637510B2, “Morpholinothiazoles as alpha 7 positive allosteric modulators” (Janssen Pharmaceutica NV, priority 2009, dated 2014).

Data set [1] deals with T1, human alpha 7-wt nAChR-expressing GH4C1 cells (Homo sapiens, UniProt P36544).
T1 construct: expressed in transfected cells
Description: Patch-clamp current recording (whole-cell voltage-clamp, PAM type classification). In kind it is cell-based. Also noted: key: Type 0 compounds minimally change the effect size of the current elicited by 1 mM choline.; Type 1 compounds enhance the effect size of the current elicited by 1 mM choline but minimally alter the kinetics of the receptor.; Type 2 compounds enhance the effect size of the current elicited by 1 mM choline while reducing the rate and/or the extent of desensitization.; Type 3 compounds enhance the effect size of the current elicited by 1 mM choline. When tested at higher concentrations up to 10 μM they completely inhibit desensitization; Type 4 compounds allow for an initial desensitization of the receptor followed by a re-opening of the receptor during agonist application. As to conditions: 1 mM choline. The protocol: The compounds of the present invention are classified as type 1-4, based on qualitative kinetic properties, as determined by whole-cell voltage-clamp recordings. This classification is based on the effect of an alpha 7 PAM compound, as described hereinbefore, on the signal elicited by an agonist application. In particular, said agonist is choline at a concentration of 1 mM. In a preferred experimental setting, said alpha 7 PAM compound and choline are simultaneously applied to the cell, as described hereinafter. Desensitization is defined as the closure of the receptor upon activation during the application of the agonist in whole-cell voltage-clamp electrophysiology measurements seen as the reduction of the […] current after initial activation by the agonist.
The definition of the PAM types 1-4 is described hereinafter: • Type 0 compounds minimally change the effect size of the current elicited by 1 mM choline. • Type 1 compounds enhance the effect size of the current elicited by 1 mM choline but minimally alter the kinetics of the receptor. In particular, the rate and the extent of desensitization and of deactivation of the receptor elicited by the agonist is not affected. The compound-modulated response to 1 mM choline, therefore, is close to a linear scaling of the 1 mM choline response in absence of the alpha 7 PAM compound. • Type 2 compounds enhance the effect size of the current elicited by 1 mM choline while reducing the rate and/or the extent of desensitization. Deactivation of the receptor is generally unaffected. • Type 3 compounds enhance the effect size of the current elicited by 1 mM choline. […] Deactivation of the receptor may be slowed down • Type 4 compounds allow for an initial desensitization of the receptor followed by a re-opening of the receptor during agonist application. At low-potency concentrations of the alpha 7 PAM compound, the agonist-induced activation, which is followed by desensitization, can still be separated from the compound-induced re-opening as an initial inward current-maximum. At higher potency concentrations of the alpha 7 PAM compound, the re-opening occurs faster than the closure due to desensitization so that the initial current-maximum disappears.
A compound was considered to have interesting PAM-like activity when the potentiation of the peak current was at least 200% compared to the control choline response (=100%). Such compounds are classified as belonging to a particular PAM type in the Experimental Part. Compounds not meeting the condition are not classified as belonging to a particular PAM-type.
The compounds also have a potentiating effect on the response to choline when measured by whole-cell patch clamp electrophysiology in GH4C1 cells stably over-expressing the human wild-type alpha 7 receptor.
Patch-clamp recording from mammalian cells has provided a powerful means of assessing the function of membrane-bound proteins thought to be subunits of ligand-gated ion channels. Activation of such proteins by endogenous or exogenous ligands cause opening of a pore associated with the receptor through which ions flow down their electrochemical gradient. In the case of the human alpha 7-wt nAChR-expressing GH4C1 recombinant cell line the preferential permeability to calcium of this receptor means that calcium flows into the cell upon activation by ACh, choline and other nicotinic ligands giving rise to a calcium current. Since this receptor rapidly desensitizes in the presence of agonist it is important that an application system is used which is capable of very rapid switching of solutions (<100 ms) to prevent partial or full desensitisation of receptor responses coincident with the time of agonist application. Consequently, a second convenient technique to assess the enhancement of nicotinic efficacy is a patch-clamp recording from human alpha 7-wt nAChR-expressing GH4C1 cells coupled with a rapid-application system. […]

In data set [2] the target is T2, human alpha 7-wt nAChR (Homo sapiens, UniProt P36544).
T2 construct: expressed in transfected cells
T2 sequence (P36544 23-502): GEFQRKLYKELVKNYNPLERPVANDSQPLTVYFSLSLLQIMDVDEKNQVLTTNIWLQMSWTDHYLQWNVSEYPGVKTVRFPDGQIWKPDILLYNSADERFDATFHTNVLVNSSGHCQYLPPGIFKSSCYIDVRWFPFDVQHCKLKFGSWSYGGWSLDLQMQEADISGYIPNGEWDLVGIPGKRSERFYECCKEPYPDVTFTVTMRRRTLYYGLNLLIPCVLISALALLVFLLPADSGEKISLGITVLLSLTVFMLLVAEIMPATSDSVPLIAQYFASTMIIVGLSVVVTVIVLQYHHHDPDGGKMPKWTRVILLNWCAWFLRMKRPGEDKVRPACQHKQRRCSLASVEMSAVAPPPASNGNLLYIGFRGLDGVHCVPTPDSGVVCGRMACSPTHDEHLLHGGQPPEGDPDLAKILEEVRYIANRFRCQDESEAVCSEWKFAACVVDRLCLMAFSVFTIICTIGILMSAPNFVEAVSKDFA
Description: Ca2+ flux imaging (FDSS) (Protocol B). It is filed as cell-based. The note with it: for EC50: potentiation of 100 μM choline, compounds 0.01 μM to 30 μM, read-out: a7-PAM-G_[33]_pEC50 pEC50 (converted); for a7-PAM-G_[33]_Eff_Curve_FI % Efficacy / Emax: efficacy of 100 μM choline defined as 100% in the absence of a PAM; for Emax: read-out: a7-PAM-G_[33]_Eff_Curve_FI % Efficacy. Summed up: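 Fluo-4AM-loaded cells expressing human α7-wt nAChR, in HBSS with 10 mM HEPES, 5 mM CaCl2, 0.1% BSA, received compound (0.01–30 μM), typically 10 min before 100 μM choline, with calcium flux read in real time. Potentiation is relative to choline alone (100%); EC50 from sigmoidal curves.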

T1 sequence (P36544 23-502): as above

A word on the melting point: it is the temperature, or range, at which the solid turns liquid. The compound `Cc1cc(-c2sc(N3CCOC(C)C3)nc2CNC(=O)C(C)C)cc(C)n1` (single isomer, unassigned) [Compound 71, N-[[5-(2,6-dimethyl-4-pyridinyl)-2-[(2S*)-2-methyl-4-morpholinyl]-4-thiazolyl]methyl]-2-methyl-propanamide] displayed a melting point of 188 °C. In addition, in data set [1], the “PAM_Type PAM type” value came to 2. For the same compound, in data set [2], the EC50 was 0.692 µM.
`Cc1cc(-c2sc(N3CCOC(C)C3)nc2CNC(=O)CC2CC2)cc(C)n1` (single isomer, unassigned) [Compound 75, N-[[5-(2,6-dimethyl-4-pyridinyl)-2-[(2R*)-2-methyl-4-morpholinyl]-4-thiazolyl]methyl]-cyclopropaneacetamide] came in with a melting point of 170 °C. Besides, the “PAM_Type PAM type” value in data set [1] came to 2. In addition, in data set [2], the “a7-PAM-G_[33]_Eff_Curve_FI % Efficacy” value came out at 819% and the EC50 is 1.02 µM.
In turn, `Cc1cc(-c2sc(N3CCOC(C)C3)nc2CNC(=O)C(C)C)cc(C)n1` (single isomer, unassigned) [Compound 76, N-[[5-(2,6-dimethyl-4-pyridinyl)-2-[(2R*)-2-methyl-4-morpholinyl]-4-thiazolyl]methyl]-2-methyl-propanamide] showed a melting point of 189 °C. In addition, the “PAM_Type PAM type” value in data set [1] amounted to 2. Moreover, in data set [2], the Emax worked out at 611% and the EC50 was 0.55 µM.
As for `Cc1cc(-c2sc(N3CCOC(C)C3)nc2CNC(=O)CC2CC2)cc(C)n1` (single isomer, unassigned) [Compound 78, N-[[5-(2,6-dimethyl-4-pyridinyl)-2-[(2S*)-2-methyl-4-morpholinyl]-4-thiazolyl]methyl]-cyclopropaneacetamide], the melting point was determined as 169 °C. In addition, the “PAM_Type PAM type” value in data set [1] is recorded as 2. Also, in data set [2], the “a7-PAM-G_[33]_Eff_Curve_FI % Efficacy” value amounted to 919% and the EC50 was 1.17 µM.
As to `Cc1cc(-c2sc(N3C[C@@H](C)O[C@@H](C)C3)nc2CNC(=O)c2cc(C)on2)cc(C)n1` [Compound 3, N-[[2-[(2R,6S)-2,6-dimethyl-4-morpholinyl]-5-(2,6-dimethyl-4-pyridinyl)-4-thiazolyl]methyl]-5-methyl-3-isoxazolecarboxamide], the melting point came to 208 °C. For the same compound, the “PAM_Type PAM type” value in data set [1] is recorded as 1. Further, in data set [2], the EC50 was 0.813 µM.
`Cc1cc(C(=O)NCc2nc(N3C[C@@H](C)O[C@@H](C)C3)sc2-c2cc(C)nc(C)c2)on1` [Compound 4, N-[[2-[(2R,6S)-2,6-dimethyl-4-morpholinyl]-5-(2,6-dimethyl-4-pyridinyl)-4-thiazolyl]methyl]-3-methyl-5-isoxazolecarboxamide] returned a melting point of 184 °C. Also, in data set [1], the “PAM_Type PAM type” value came to 2. In data set [2], the Emax was 927% and the EC50 was 1.41 µM.
The like results for `CCC(=O)NCc1nc(N2C[C@@H](C)O[C@@H](C)C2)sc1-c1cc(C)nc(C)c1` [Compound 39, N-[[2-[(2R,6S)-2,6-dimethyl-4-morpholinyl]-5-(2,6-dimethyl-4-pyridinyl)-4-thiazolyl]methyl]-propanamide] were, in that order, 176 °C, 2, 498% and 0.871 µM.
Regarding `COc1cc(-c2sc(N3C[C@@H](C)O[C@@H](C)C3)nc2CNC(=O)c2cc(C)on2)cc(C)n1` [Compound 82, N-[[2-[(2R,6S)-2,6-dimethyl-4-morpholinyl]-5-(2-methoxy-6-methyl-4-pyridinyl)-4-thiazolyl]methyl]-5-methyl-3-isoxazolecarboxamide], the melting point is 203 °C. Also, in data set [1], the “PAM_Type PAM type” value is recorded as 1. Also, in data set [2], the Emax came to 459% and the EC50 is 0.324 µM.
On to `COc1cc(-c2sc(N3C[C@@H](C)O[C@@H](C)C3)nc2CNC(=O)CC2CC2)cc(C)n1` [Compound 83, N-[[2-[(2R,6S)-2,6-dimethyl-4-morpholinyl]-5-(2-methoxy-6-methyl-4-pyridinyl)-4-thiazolyl]methyl]-cyclopropaneacetamide], for which the melting point is 171 °C. The “PAM_Type PAM type” value in data set [1] was 2. For the same compound, in data set [2], the Emax came out at 584% and the EC50 is 0.145 µM.
Regarding `COc1cc(-c2sc(N3C[C@@H](C)O[C@@H](C)C3)nc2CNC(=O)C2CCC2)cc(C)n1` [Compound 84, N-[[2-[(2R,6S)-2,6-dimethyl-4-morpholinyl]-5-(2-methoxy-6-methyl-4-pyridinyl)-4-thiazolyl]methyl]-cyclobutanecarboxamide], the melting point stood at 171 °C. Besides, the “PAM_Type PAM type” value in data set [1] is listed as 2. Besides, in data set [2], the Emax stood at 443% and the EC50 was 0.102 µM.
The like results for `COc1cc(-c2sc(N3C[C@@H](C)O[C@@H](C)C3)nc2CNC(=O)c2cccc(F)c2)cc(C)n1` [Compound 85, N-[[2-[(2R,6S)-2,6-dimethyl-4-morpholinyl]-5-(2-methoxy-6-methyl-4-pyridinyl)-4-thiazolyl]methyl]-3-fluoro-benzamide] were, in that order, 172 °C, 0, 320% and 0.708 µM.
As to `Cc1cc(-c2sc(N3C[C@@H](C)O[C@@H](C)C3)nc2CNC(=O)c2cc(C)on2)ccn1` [Compound 87, N-[[2-[(2R,6S)-2,6-dimethyl-4-morpholinyl]-5-(2-methyl-4-pyridinyl)-4-thiazolyl]methyl]-5-methyl-3-isoxazolecarboxamide], the melting point came to 177 °C. For the same compound, the “PAM_Type PAM type” value in data set [1] came out at 2. Besides, in data set [2], the Emax amounted to 646% and the EC50 was 0.813 µM.
As for `Cc1cc(-c2sc(N3C[C@@H](C)O[C@@H](C)C3)nc2CNC(=O)C(C)C2CC2)cc(C)n1` (stereo partly drawn) [Compound 179, N-[[2-[(2R,6S)-2,6-dimethyl-4-morpholinyl]-5-(2,6-dimethyl-4-pyridinyl)-4-thiazolyl]methyl]-α-methyl-cyclopropaneacetamide], the “PAM_Type PAM type” value in data set [1] was determined as 2. In data set [2], the Emax worked out at 707% and the EC50 is 0.0977 µM.
Consider `Cc1cc(-c2sc(N3CCOC(C(F)(F)F)C3)nc2CNC(=O)c2ccc(F)cc2C)cc(C)n1` (centres unmarked) [Compound 193, N-[[5-(2,6-dimethyl-4-pyridinyl)-2-[2-(trifluoromethyl)-4-morpholinyl]-4-thiazolyl]methyl]-4-fluoro-2-methyl-benzamide], for which the “PAM_Type PAM type” value in data set [1] stood at 4. In addition, the EC50 in data set [2] is 0.0209 µM.
For the compound `Cc1cc(F)ccc1C(=O)NCc1nc(N2C[C@@H](C)O[C@@H](C)C2)sc1-c1ccnc(C(F)(F)F)c1` [Compound 198, N-[[2-[(2R,6S)-2,6-dimethyl-4-morpholinyl]-5-[2-(trifluoromethyl)-4-pyridinyl]-4-thiazolyl]methyl]-4-fluoro-2-methyl-benzamide], in data set [1], the “PAM_Type PAM type” value is reported as 1. In addition, the EC50 in data set [2] was 0.148 µM.
